Experimental data published in patent US4041032A, “Pyrazine derivatives” (priority 1974, dated 1977).
Like-named read-outs stand apart in the source and are kept apart here.

What was measured:
[1] = tested on: emesis induced by apomorphine; assay: Antiemetic activity, subcutaneous (apomorphine-induced emesis); type: in vivo, dog; settings: for ED50: Canis lupus familiaris, sc, read-out: Antiemetic activity ED50 (s.c); for Antiemetic activity ED50 (s.c): Table II
Protocol: Each of the test samples was administered to a dog by subcutaneous injection; then 0.1 mg./kg. of apomorphine was administered to a dog by subcutaneous injection after 30 minutes, and the frequency of emesis within 30 minutes after the injection was measured. (Each dog was used only once). From the frequency of emesis, the inhibition rate was calculated and from the relation between the amount of the sample used and the inhibition rate, ED50 (μg/kg.) was determined. Drug activity was assessed by ED50 values.
1. Subcutaneous administration:
Same as Experiment (I-a).

in vivo = settings: for selectivity ratio: LD50 mouse i.v. / antiemetic ED50 dog s.c., x 1/1000, Table I, read-out: Safety margin (LD50/ED50); for LD50 at 168 h: iv, mouse, i.v. tail injection, mortality after one week, Table I, read-out: Toxicity LD50
Protocol: Each of the test samples was injected intravenously to a mouse in the tail portion at a rate of 0.1 ml./10 g./10 sec. by an up and down method. The mortality rate after one week was checked and from the relation between the amount of the sample used and the mortality rate, LD50 (mg/kg) was determined.

[2] = tested on: spontaneous motility of the stomach; assay: Effect of stimulating gastric motility (ballon method); type: in vivo; settings: anesthetized dog, i.v.; Table III
Protocol: After anesthetizing a dog which had fasted overnight by intravenously injecting 30 mg./kg. of pentobarbital, each of the test samples was injected intravenously and then the spontaneous motility of the stomach was recorded by means of a polygraph (RM-150, made by Nihon Koden K. K.) according to the ballon method (Jap. J. Smooth Muscle Res., 2, 15(1966)). In addition, the effect of stimulating the gastric motility was denoted as (+) and (++) respectively when 10 mg./kg. and 5 mg./kg. each of the sample was intervenously injected and the stimulated motility of the stomach continued longer than 20 minutes.

[3] = Cataleptic activity (Courvoisier's method); settings: rat, in vivo, sc
Protocol: According to the Courvoisier's method (Courvoisier, S, Durcot, R. & Jolou, L, (1957), Psychotropic drugs (Ed. Garattini, S and Ghetti, V.), p. 373, Else vier Publishing Company, Amsterdam, London, New York, Princeton), the four limbs of a rat were placed on four rubber stoppers and when the rat could maintain the same pose for 30 seconds, the rat was determined to be positive. The catalepsy was measured every 30 minutes till 240 minutes after the subcutaneous administration of the sample. The sample that produced a positive response in rat even once was determined to be positive in the cataleptic test. From the relation between the positive response and the amount of the sample, ED50 (mg/kg) was determined.

catalepsy = settings: in vivo; cited from earlier work
[4] = tested on: emesis induced by apomorphine; assay: Antiemetic activity, oral (apomorphine-induced emesis); type: in vivo, dog; settings: for ED50: Canis lupus familiaris, po, dog, p.o. in capsules with lactose, 90 min before apomorphine 0.1 mg/kg s.c., Table II; for Activity efficiency (ED50 p.o/ED50 s.c): antiemetic ED50, dog
Protocol: 2. Oral administration: Each of the test samples was mixed with lactose and was filled in capsules. The capsules were orally administered to a dog, 0.1 mg./kg. of apomorphine was administered to the dog by subcutaneous injection after 90 minutes, and then the frequency of emesis was measured within 30 minutes after the apomorphine injection. (Each dog was used only once.) The drugs were evaluated by ED50 values in the same way as described in Experiment I-a.

emesis = settings: in vivo; cited from earlier work
gastric motility = settings: in vivo; cited from earlier work
[5] = dog, s.c., 30 min before apomorphine 0.1 mg/kg s.c., Table I
[6] = dog, s.c., 30 min before apomorphine 0.1 mg/kg s.c.
[7] = s.c., every 30 min till 240 min, symbol of Table II, read-out: Catalepsy ED50 (not measurable, symbol)

Row | SMILES | ED50 [1, 5] [mg/kg] | selectivity ratio (in vivo) | LD50 at 168 h (in vivo) [mg/kg] | Effect of stimulating gastric motility [2] | Antiemetic activity ED50 (s.c) [1, 6] [µg/kg] | ED50 at 4 h [3] [mg/kg] | Catalepsy, literature (catalepsy) | ED50 [4] [mg/kg] | Antiemetic activity, literature (emesis) | Effect on gastric motility, literature (gastric motility) | ED50 at 4 h [3, 7] [mg/kg] | Activity efficiency (ED50 p.o/ED50 s.c) [4] | ED50 [1] [mg/kg] | ED50 at 4 h ([3]; s.c., every 30 min till 240 min, Table II, read-out: Catalepsy ED50) [mg/kg]
1 | CCNc1nc(OC)c(C(=O)NCC2CCCN2C)nc1Cl (centres unmarked) [N-(1-methylpyrrolidin-2-ylmethyl)-6-chloro-5-ethylamino-3-methoxypyrazine-2-carboxamide] | 0.003 | 15000 | 45 |  |  |  |  |  |  |  |  |  |  | 
2 | CCN(CC)CCNC(=O)c1nc(Cl)c(Nc2ccccc2)nc1OC [N-(2-diethylaminoethyl)-5-anilino-6-chloro-3-methoxypyrazine-2-carboxamide] |  |  |  | + to ++ |  |  |  |  |  |  |  |  |  | 
3 | CCN1CCCC1CNC(=O)c1nc(Cl)cnc1OC (centres unmarked) [N-(1-ethylpyrrolidin-2-ylmethyl)-5-chloro-2-methoxypyrazine-3-carboxamide] | 0.02 | 8500 | 170 |  |  |  |  |  |  |  |  |  |  | 
4 | CCN(CC)CCNC(=O)c1cc(Cl)c(N)cc1OC [metoclopramide, N-(diethylaminoethyl)-4-amino-5-chloro-2-methoxybenzamide, reference compound] | 0.03 |  | 61 |  | 30 | 45 | produces catalepsy as a side effect | 0.13 | stronger antiemetic activity than chlorpromazine | effect of stimulating gastric motility |  |  |  | 
5 | CCN(CC)CCNC(=O)c1nc(Cl)c(NC)nc1OC [N-(2-diethylaminoethyl)-6-chloro-3-methoxy-5-methylaminopyrazine-2-carboxamide] | 0.01 | 9100 | 91 |  |  |  |  |  |  |  |  |  |  | 
6 | CCNc1nc(OC)c(C(=O)NCCN(CC)CC)nc1Cl [N-(2-diethylaminoethyl)-6-chloro-5-ethylamino-3-methoxypyrazine-2-carboxamide] | 0.02 | 4550 | 91 | + to ++ | 20 |  |  | 0.065 |  |  | > 100 | 3.3 |  | 
7 | CCN(CC)CCNC(=O)c1nc(Cl)c(N)nc1OC [N-(2-diethylaminoethyl)-5-amino-6-chloro-3-methoxypyrazine-2-carboxamide] | 0.012 | 12500 | 150 |  | 12 |  |  | 0.07 |  |  | > 100 | 5.8 |  | 
8 | CN(C)CCCN1c2ccccc2Sc2ccc(Cl)cc21 [chlorpromazine, reference compound] |  | 290 | 71.4 |  | 250 |  |  | 2 |  |  |  | 8.0 | 0.25 | 7
9 | CCOc1nc(N)c(Cl)nc1C(=O)NCCN(CC)CC [N-(2-diethylaminoethyl)-5-amino-6-chloro-3-ethoxypyrazine-2-carboxamide] | 0.012 | 6010 | 72.1 |  |  |  |  |  |  |  |  |  |  | 
10 | CCNc1nc(OC)c(C(=O)NCC2CCCN2CC)nc1Cl (centres unmarked) [N-(1-ethylpyrrolidin-2-ylmethyl)-6-chloro-5-ethylamino-3-methoxypyrazine-2-carboxamide] | 0.0026 | 23500 | 61.1 |  | 2.6 |  |  | 0.006 |  |  | > 100 | 2.3 |  | 
11 | CCN1CCCC1CNC(=O)c1nc(Cl)c(N)nc1OC (centres unmarked) [N-(1-ethylpyrrolidin-2-ylmethyl)-5-amino-6-chloro-3-methoxypyrazine-2-carboxamide] | 0.002 | 45700 | 91.3 |  |  |  |  | 0.004 |  |  | > 100 | 2.0 |  | 
